Measurements from the NIST ThermoML archive (doi:10.1021/je300652k).

Conditions: Liquid, Pulse-echo method

FC(F)(F)C1(F)OC1(F)F (configuration not stated) [2,2,3-trifluoro-3-(trifluoromethyl)oxirane]
Conditions | speed of sound [m/s]
253.15 K, 2510 kPa | 571.2
253.15 K, 10040 kPa | 623.9
253.15 K, 25020 kPa | 708
253.15 K, 50030 kPa | 816.7
253.15 K, 75010 kPa | 903.6
253.15 K, 100040 kPa | 977.8
253.15 K, 125040 kPa | 1043.1
253.15 K, 150010 kPa | 1101.9
253.15 K, 175030 kPa | 1155.8
253.15 K, 200030 kPa | 1205.6
253.15 K, 250060 kPa | 1295.5
253.15 K, 300100 kPa | 1376.5
253.15 K, 350000 kPa | 1449.2
253.15 K, 400120 kPa | 1516.7
283.15 K, 2500 kPa | 449.4
283.15 K, 9990 kPa | 517.5
283.15 K, 25000 kPa | 617.4
283.15 K, 49990 kPa | 737.8
283.15 K, 74990 kPa | 831.4
283.15 K, 100050 kPa | 910
283.15 K, 125050 kPa | 978.4
283.15 K, 150010 kPa | 1039.3
283.15 K, 175090 kPa | 1095.2
283.15 K, 200080 kPa | 1146.8
283.15 K, 250010 kPa | 1239.4
283.15 K, 300020 kPa | 1321.5
283.15 K, 350020 kPa | 1396.5
283.15 K, 400120 kPa | 1465.2
313.15 K, 2500 kPa | 326.6
313.15 K, 10010 kPa | 420.6
313.15 K, 25030 kPa | 538.8
313.15 K, 50010 kPa | 670.9
313.15 K, 75040 kPa | 769.9
313.15 K, 100050 kPa | 852
313.15 K, 125040 kPa | 922.8
313.15 K, 150070 kPa | 986.2
313.15 K, 175020 kPa | 1043.4
313.15 K, 200020 kPa | 1095.8
313.15 K, 250020 kPa | 1190.7
313.15 K, 300010 kPa | 1274.7
313.15 K, 350030 kPa | 1350.5
313.15 K, 400060 kPa | 1420.2
343.15 K, 10040 kPa | 332.6
343.15 K, 25050 kPa | 471.3
343.15 K, 50030 kPa | 614.1
343.15 K, 75030 kPa | 718
343.15 K, 100050 kPa | 803
343.15 K, 125030 kPa | 875.8
343.15 K, 150030 kPa | 940.5
343.15 K, 175010 kPa | 999.1
343.15 K, 200060 kPa | 1052.9
343.15 K, 250050 kPa | 1149.1
343.15 K, 299960 kPa | 1234.4
343.15 K, 350090 kPa | 1311.5
343.15 K, 400040 kPa | 1382.2
373.15 K, 10010 kPa | 255
373.15 K, 24970 kPa | 413.4
373.15 K, 50060 kPa | 565.5
373.15 K, 75000 kPa | 673
373.15 K, 100040 kPa | 760
373.15 K, 125040 kPa | 834.6
373.15 K, 150040 kPa | 900.3
373.15 K, 175000 kPa | 959.8
373.15 K, 200070 kPa | 1014.2
373.15 K, 249990 kPa | 1111.6
373.15 K, 300030 kPa | 1198
373.15 K, 350040 kPa | 1275.4
373.15 K, 400010 kPa | 1346.4
403.15 K, 20010 kPa | 322.5
403.15 K, 25020 kPa | 367.5
403.15 K, 50020 kPa | 525.9
403.15 K, 75050 kPa | 636.7
403.15 K, 100040 kPa | 725.7
403.15 K, 125010 kPa | 801.5
403.15 K, 150040 kPa | 868.4
403.15 K, 175040 kPa | 928.7
403.15 K, 200050 kPa | 983.8
403.15 K, 250040 kPa | 1082.6
403.15 K, 299980 kPa | 1169.6
403.15 K, 350040 kPa | 1247.9
403.15 K, 399990 kPa | 1319.9

FC(F)=C(F)C(F)(F)F [hexafluoropropene]
Conditions | speed of sound [m/s]
253.27 K, 1150 kPa | 575.6
253.27 K, 10940 kPa | 645.3
253.27 K, 25910 kPa | 728.8
253.27 K, 52820 kPa | 844.3
253.27 K, 75030 kPa | 921.1
253.27 K, 100630 kPa | 997.3
253.27 K, 125810 kPa | 1063
253.27 K, 151420 kPa | 1123.6
253.27 K, 174830 kPa | 1174.3
253.27 K, 200450 kPa | 1224.7
253.27 K, 250580 kPa | 1315.5
253.27 K, 299650 kPa | 1393.8
253.27 K, 350190 kPa | 1468.5
253.27 K, 400740 kPa | 1535.4
273.17 K, 1130 kPa | 488.3
273.17 K, 10400 kPa | 567.9
273.17 K, 25040 kPa | 660.8
273.17 K, 50150 kPa | 779.5
273.17 K, 75280 kPa | 871.7
273.17 K, 100230 kPa | 949
273.17 K, 125430 kPa | 1017.1
273.17 K, 150270 kPa | 1077.5
273.17 K, 175810 kPa | 1133.8
273.17 K, 200700 kPa | 1184.6
273.17 K, 250800 kPa | 1276.7
273.17 K, 300450 kPa | 1358.2
273.17 K, 350820 kPa | 1432.3
273.17 K, 400090 kPa | 1499.6
288.15 K, 1160 kPa | 424.2
288.15 K, 5200 kPa | 468.9
288.15 K, 10130 kPa | 513.8
288.15 K, 25190 kPa | 618
288.15 K, 50080 kPa | 741.2
288.15 K, 75440 kPa | 837.6
288.15 K, 100170 kPa | 916.1
288.15 K, 125510 kPa | 986.4
288.15 K, 150630 kPa | 1048.4
288.15 K, 175250 kPa | 1103.9
288.15 K, 200700 kPa | 1156.6
288.15 K, 250380 kPa | 1249
288.15 K, 300040 kPa | 1331.1
288.15 K, 350970 kPa | 1407.7
288.15 K, 400410 kPa | 1475.2
303.15 K, 1990 kPa | 370.7
303.15 K, 10090 kPa | 463.9
303.15 K, 25160 kPa | 576.7
303.15 K, 50920 kPa | 709.3
303.15 K, 75370 kPa | 804.5
303.15 K, 100560 kPa | 886.5
303.15 K, 125410 kPa | 956.2
303.15 K, 150900 kPa | 1020.1
303.15 K, 175340 kPa | 1075.6
303.15 K, 200830 kPa | 1129
303.15 K, 250190 kPa | 1221.9
303.15 K, 300750 kPa | 1306.5
303.15 K, 350300 kPa | 1381.1
303.15 K, 400020 kPa | 1450.2
323.18 K, 2300 kPa | 288.3
323.18 K, 10550 kPa | 404.9
323.18 K, 28790 kPa | 547
323.18 K, 50380 kPa | 664.6
323.18 K, 75340 kPa | 767.2
323.18 K, 101090 kPa | 852.8
323.18 K, 125070 kPa | 921.8
323.18 K, 150670 kPa | 987.4
323.18 K, 175680 kPa | 1045.2
323.18 K, 200750 kPa | 1098.6
323.18 K, 250620 kPa | 1193.8
323.18 K, 300400 kPa | 1278
323.18 K, 350810 kPa | 1355.4
323.18 K, 400580 kPa | 1424.9
343.19 K, 4760 kPa | 245.5
343.19 K, 8270 kPa | 311.3
343.19 K, 10440 kPa | 341.8
343.19 K, 50540 kPa | 627.2
343.19 K, 75610 kPa | 730.9
343.19 K, 100650 kPa | 818.3
343.19 K, 125170 kPa | 890.4
343.19 K, 150340 kPa | 956.2
343.19 K, 175160 kPa | 1014.7
343.19 K, 200290 kPa | 1069
343.19 K, 250220 kPa | 1165.9
343.19 K, 300620 kPa | 1252
343.19 K, 350100 kPa | 1327.9
343.19 K, 400370 kPa | 1399.8
363.15 K, 10450 kPa | 287
363.15 K, 25500 kPa | 442
363.15 K, 50520 kPa | 592.9
363.15 K, 75490 kPa | 700.6
363.15 K, 100300 kPa | 787.2
363.15 K, 125230 kPa | 861.9
363.15 K, 150340 kPa | 928.6
363.15 K, 175590 kPa | 988.8
363.15 K, 200320 kPa | 1042.8
363.15 K, 250610 kPa | 1141.2
363.15 K, 300360 kPa | 1226.7
363.15 K, 350690 kPa | 1305.3
363.15 K, 400260 kPa | 1376
383.16 K, 15690 kPa | 310.6
383.16 K, 25690 kPa | 407.4
383.16 K, 50530 kPa | 562.3
383.16 K, 75940 kPa | 673.9
383.16 K, 100500 kPa | 761.1
383.16 K, 125630 kPa | 837.2
383.16 K, 150460 kPa | 903.4
383.16 K, 175770 kPa | 964.4
383.16 K, 200740 kPa | 1019.4
383.16 K, 250260 kPa | 1116.8
383.16 K, 300690 kPa | 1204.6
383.16 K, 350280 kPa | 1282.6
383.16 K, 400510 kPa | 1354.3
403.14 K, 16670 kPa | 288.3
403.14 K, 25610 kPa | 375.7
403.14 K, 50890 kPa | 537.5
403.14 K, 75640 kPa | 647.4
403.14 K, 100060 kPa | 737.1
403.14 K, 125630 kPa | 813.6
403.14 K, 150360 kPa | 880.3
403.14 K, 175620 kPa | 941.6
403.14 K, 200670 kPa | 997.2
403.14 K, 250500 kPa | 1096
403.14 K, 300660 kPa | 1183.8
403.14 K, 350610 kPa | 1262.3
403.14 K, 400280 kPa | 1333.6
423.15 K, 19600 kPa | 293.5
423.15 K, 25100 kPa | 345.1
423.15 K, 50800 kPa | 513
423.15 K, 75400 kPa | 623.9
423.15 K, 100710 kPa | 715.4
423.15 K, 125320 kPa | 791.3
423.15 K, 150160 kPa | 858.8
423.15 K, 175410 kPa | 920.3
423.15 K, 200520 kPa | 976.3
423.15 K, 250420 kPa | 1075.9
423.15 K, 300390 kPa | 1163.6
423.15 K, 350600 kPa | 1243
423.15 K, 400920 kPa | 1315.6
448.15 K, 25130 kPa | 318.1
448.15 K, 50710 kPa | 485
448.15 K, 75240 kPa | 596.6
448.15 K, 100750 kPa | 689.4
448.15 K, 125710 kPa | 766.5
448.15 K, 150770 kPa | 834.5
448.15 K, 175320 kPa | 894.5
448.15 K, 200820 kPa | 951.6
448.15 K, 250910 kPa | 1051.8
448.15 K, 300780 kPa | 1139.3
448.15 K, 350710 kPa | 1218.3
448.15 K, 400820 kPa | 1291.1
473.14 K, 25160 kPa | 298.7
473.14 K, 50460 kPa | 462.3
473.14 K, 75570 kPa | 576.7
473.14 K, 100220 kPa | 666.6
473.14 K, 125570 kPa | 745.3
473.14 K, 150690 kPa | 814
473.14 K, 175720 kPa | 875.3
473.14 K, 200800 kPa | 931.7
473.14 K, 250600 kPa | 1031.5
473.14 K, 300640 kPa | 1119.7
473.14 K, 350560 kPa | 1199
473.14 K, 400750 kPa | 1272
